In series [1] the target is T1, Solute carrier family 22 member 2 (Rattus norvegicus, UniProt Q9R0W2).
T1 sequence (Q9R0W2 whole entry): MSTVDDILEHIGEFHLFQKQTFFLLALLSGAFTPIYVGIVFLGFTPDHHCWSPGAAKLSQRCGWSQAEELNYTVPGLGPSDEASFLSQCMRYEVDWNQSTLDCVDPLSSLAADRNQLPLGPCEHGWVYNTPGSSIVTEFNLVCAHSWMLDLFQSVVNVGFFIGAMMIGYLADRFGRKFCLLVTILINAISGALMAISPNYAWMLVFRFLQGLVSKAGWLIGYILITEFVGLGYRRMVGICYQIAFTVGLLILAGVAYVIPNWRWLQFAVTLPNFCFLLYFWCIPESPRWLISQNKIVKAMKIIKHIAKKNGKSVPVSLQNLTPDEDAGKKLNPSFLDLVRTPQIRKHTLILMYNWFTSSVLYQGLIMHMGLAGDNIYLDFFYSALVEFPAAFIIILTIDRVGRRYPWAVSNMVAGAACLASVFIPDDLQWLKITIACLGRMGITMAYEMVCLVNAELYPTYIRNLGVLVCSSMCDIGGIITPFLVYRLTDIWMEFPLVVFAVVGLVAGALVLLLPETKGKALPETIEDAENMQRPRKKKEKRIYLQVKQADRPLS
As to the kind of experiment: TP_TRANSPORTER: inhibition pramipexole uptake in rOCT2-injected oocytes. The class given is functional, cell-based, Oocyte.

For series [2], the target named is T1, Solute carrier family 22 member 2. As to the kind of experiment: TP_TRANSPORTER: uptake in Xenopus laevis oocytes. The following applies: Xenopus laevis oocytes expressing the transporter.
For series [3], the target named is T2, Solute carrier family 22 member 1 (Rattus norvegicus, UniProt Q63089).
T2 sequence (Q63089 whole entry): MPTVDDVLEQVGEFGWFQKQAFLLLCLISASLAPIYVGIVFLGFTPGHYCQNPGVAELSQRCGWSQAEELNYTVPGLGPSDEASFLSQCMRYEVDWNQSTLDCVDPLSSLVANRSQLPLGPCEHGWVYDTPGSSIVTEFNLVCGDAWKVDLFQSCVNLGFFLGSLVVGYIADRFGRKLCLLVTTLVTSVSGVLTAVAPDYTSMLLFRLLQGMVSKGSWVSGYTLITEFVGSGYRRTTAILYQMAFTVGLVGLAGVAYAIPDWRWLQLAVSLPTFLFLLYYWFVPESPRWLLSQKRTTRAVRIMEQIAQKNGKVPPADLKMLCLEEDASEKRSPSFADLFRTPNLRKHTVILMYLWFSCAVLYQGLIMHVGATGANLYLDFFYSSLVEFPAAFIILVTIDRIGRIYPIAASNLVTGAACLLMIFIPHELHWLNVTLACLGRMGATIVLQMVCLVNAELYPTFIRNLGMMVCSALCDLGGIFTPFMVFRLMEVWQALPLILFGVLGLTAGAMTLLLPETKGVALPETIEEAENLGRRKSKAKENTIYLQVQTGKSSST
As to the kind of experiment: TP_TRANSPORTER: inhibition pramipexole uptake in rOCT1-injected oocytes. The class given is functional, cell-based, Oocyte.

Substrate in series [4]: CCCN[C@H]1CCc2nc(N)sc2C1
As to the kind of experiment: cells, lysate or membranes named.

Usually IC50 stands for the midpoint of a concentration-inhibition curve. Low readings indicate greater potency, high ones weaker potency. `CCN(CC)CCNC(=O)c1ccc(N)cc1` [PROCAINAMIDE] had an IC50 in series [1] of 167 µM.

The term Km denotes the substrate concentration at which the rate is half of its maximum. On to `CCCN[C@H]1CCc2nc(N)sc2C1` [PRAMIPEXOLE], for which the Km in series [2] turned out to be 17 µM.

Turning to `NC12CC3CC(CC(C3)C1)C2` [AMANTADINE], the IC50 in series [1] came to 271 µM; in series [3], 76.3 µM.

For `C[C@]12C[C@H](O)[C@H]3[C@@H](CCC4=CC(=O)CC[C@@]43C)[C@@H]1CC[C@@H]2C(=O)CO` [CORTICOSTERONE], the figures for the IC50 in series [1] and in series [3] were 10.7 µM and 164 µM, respectively.

B1: Solute carrier family 22 member 2 (Rattus norvegicus) (protein)
chain: MSTVDDILEHIGEFHLFQKQTFFLLALLSGAFTPIYVGIVFLGFTPDHHCWSPGAAKLSQRCGWSQAEELNYTVPGLGPSDEASFLSQCMRYEVDWNQSTLDCVDPLSSLAADRNQLPLGPCEHGWVYNTPGSSIVTEFNLVCAHSWMLDLFQSVVNVGFFIGAMMIGYLADRFGRKFCLLVTILINAISGALMAISPNYAWMLVFRFLQGLVSKAGWLIGYILITEFVGLGYRRMVGICYQIAFTVGLLILAGVAYVIPNWRWLQFAVTLPNFCFLLYFWCIPESPRWLISQNKIVKAMKIIKHIAKKNGKSVPVSLQNLTPDEDAGKKLNPSFLDLVRTPQIRKHTLILMYNWFTSSVLYQGLIMHMGLAGDNIYLDFFYSALVEFPAAFIIILTIDRVGRRYPWAVSNMVAGAACLASVFIPDDLQWLKITIACLGRMGITMAYEMVCLVNAELYPTYIRNLGVLVCSSMCDIGGIITPFLVYRLTDIWMEFPLVVFAVVGLVAGALVLLLPETKGKALPETIEDAENMQRPRKKKEKRIYLQVKQADRPLS
Consider B1, for which the Km in series [4] was found to be 17 µM.

(Values after ChEMBL document CHEMBL2074258 (Drug Metab Dispos, 2005).)
